Source: patent US8106055B2, “Substituted amide compounds” (Gruenenthal GmbH, priority 2007, dated 2012)

These compounds were tested against T1, bradykinin 1 receptor (B1R) of the rat (Rattus norvegicus, UniProt P97583) (assay: Functional investigation on the rat bradykinin 1 receptor (B1R), Ca2+ FLIPR assay in CHO K1 rB1R cells). Details: CHO-K1, B1R antagonism rat; test substance 10 μM; Ca2+ FLIPR, CHO K1 rB1R cells; read-out: B1R Ant. r [10 μM] % Inhibition.
T1 construct: expressed in transfected cells; host or cells: CHO K1 cells
T1 sequence (P97583 1-337): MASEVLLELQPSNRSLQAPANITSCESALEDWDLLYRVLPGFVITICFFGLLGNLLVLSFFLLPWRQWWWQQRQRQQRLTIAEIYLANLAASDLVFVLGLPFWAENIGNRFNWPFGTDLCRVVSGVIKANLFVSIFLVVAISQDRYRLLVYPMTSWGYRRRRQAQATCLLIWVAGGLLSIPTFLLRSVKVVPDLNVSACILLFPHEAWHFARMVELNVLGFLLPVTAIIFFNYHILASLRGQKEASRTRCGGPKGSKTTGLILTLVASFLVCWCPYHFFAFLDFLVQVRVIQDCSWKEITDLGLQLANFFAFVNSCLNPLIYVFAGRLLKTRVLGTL
Format: cell-based
In short: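 Peak Ca2+-dependent fluorescence in B1R-transfected CHO K1 cells measures antagonism of an EC80 agonist challenge given 10-20 min after compound. Agonist is Lys-Des-Arg9-bradykinin for human, Des-Arg9-bradykinin for rat receptor.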

Row | Compound | inhibition at 10 µM
1 | COc1cc(C)c(S(=O)(=O)N2CCC(OCC(=O)NCC3CCC(C(c4ccccc4)N(C)C)CC3)CC2)c(C)c1C (stereo not drawn) [Example 143, N-((4-((dimethylamino)(phenyl)methyl)cyclohexyl)methyl)-2-(1-(4-methoxy-2,3,6-trimethylphenylsulfonyl)piperidin-4-yloxy)acetamide] | 19%
2 | Cc1ccc(S(=O)(=O)N2CCC(OCC(=O)NCC3CCC(C(c4cccc(F)c4)N(C)C)CC3)C2)cc1 (stereo not drawn) [Example 185, N-((4-((dimethylamino)(3-fluorophenyl)methyl)cyclohexyl)methyl)-2-(1-tosylpyrrolidin-3-yloxy)acetamide] | 28%
3 | COc1cc(C)c(S(=O)(=O)N2CCCC(OCC(=O)NCC3CCC(C(c4ccccc4)N(C)C)CC3)C2)c(C)c1C (stereo not drawn) [Example 29, N-((4-((dimethylamino)(phenyl)methyl)cyclohexyl)methyl)-2-(1-(4-methoxy-2,3,6-trimethylphenylsulfonyl)piperidin-3-yloxy)acetamide] | 17%
4 | CN(C)C(c1ccccc1)C1CCC(CNC(=O)COCCN(C)S(=O)(=O)c2c(Cl)cccc2Cl)CC1 (stereo not drawn) [Example 13, 2-(2-(2,6-dichloro-N-methylphenylsulfonamido)ethoxy)-N-((4-((dimethylamino)(phenyl)methyl)cyclohexyl)methyl)acetamide] | 44%
5 | CN(C)C(c1cccs1)C1CCC(CCNC(=O)COCCN(C)S(=O)(=O)c2ccc(Cl)cc2Cl)CC1 (stereo not drawn) [Example 9, 2-(2-(2,4-dichloro-N-methylphenylsulfonamido)ethoxy)-N-(2-(4-((dimethylamino) (thiophen-2-yl)methyl)cyclohexyl)ethyl)acetamide] | 43%
6 | Cc1ccc(S(=O)(=O)N(C)CCOCC(=O)NCC2CCC(C(c3ccccc3)N(C)C)CC2)cc1 (stereo not drawn) [Example 157, N-((4-((dimethylamino) (phenyl)methyl)cyclohexyl)methyl)-2-(2-(N,4-dimethylphenylsulfonamido)ethoxy)acetamide] | -1%
7 | CN(C)C(c1cccs1)C1CCC(CCNC(=O)COC2CCN(S(=O)(=O)c3ccc(Cl)cc3Cl)C2)CC1 (stereo not drawn) [Example 21, 2-(1-(2,4-dichlorophenylsulfonyl)pyrrolidin-3-yloxy)-N-(2-(4-((dimethylamino)(thiophen-2-yl)methyl)cyclohexyl)ethyl)acetamide] | 50%
8 | CN(C)C(c1cccc(F)c1)C1CCC(CNC(=O)COC2CCN(S(=O)(=O)c3cccc(C(F)(F)F)c3)C2)CC1 (stereo not drawn) [Example 170, N-((4-((dimethylamino)(3-fluorophenyl)methyl)cyclohexyl)methyl)-2-(1-(3-(trifluoromethyl)phenylsulfonyl)pyrrolidin-3-yloxy)acetamide] | 38%
9 | Cc1cc(C)c(S(=O)(=O)N2CCC(OCC(=O)NCC3CCC(C(c4cccs4)N(C)C)CC3)C2)c(C)c1 (stereo not drawn) [Example 27, N-((4-((dimethylamino)(thiophen-2-yl)methyl)cyclohexyl)methyl)-2-(1-(mesitylsulfonyl)pyrrolidin-3-yloxy)acetamide] | 60%
10 | CN(C)C(c1cccs1)C1CCC(NC(=O)COC2CCN(S(=O)(=O)c3cccc(C(F)(F)F)c3)C2)CC1 (stereo not drawn) [Example 11, N-(4-((dimethylamino)(thiophen-2-yl)methyl)cyclohexyl)-2-(1-(3-(trifluoromethyl)phenylsulfonyl)pyrrolidin-3-yloxy)acetamide] | 36%
11 | CCN(CCOCC(=O)NC1CCC(C(c2cccc(F)c2)N(C)C)CC1)S(=O)(=O)c1c(C)cc(OC)c(C)c1C (stereo not drawn) [Example 176, N-(4-((dimethylamino)(3-fluorophenyl)methyl)cyclohexyl)-2-(2-(N-ethyl-4-methoxy-2,3,6-trimethylphenylsulfonamido)ethoxy)acetamide] | 47%
12 | COc1ccc(S(=O)(=O)N2CCCCC2COCC(=O)NCC2CCC(C(c3ccccc3)N(C)C)CC2)cc1OC (stereo not drawn) [Example 150, 2-((1-(3,4-Dimethoxyphenylsulfonyl)piperidin-2-yl)methoxy)-N-((4-((dimethylamino)(phenyl)methyl)cyclohexyl)methyl)acetamide] | 10%
13 | Cc1ccc(S(=O)(=O)N2CCC(OCC(=O)NC3CCC(C(c4cccc(F)c4)N(C)C)CC3)C2)cc1 (stereo not drawn) [Example 167, N-(4-((dimethylamino)(3-fluorophenyl)methyl)cyclohexyl)-2-(1-tosylpyrrolidin-3-yloxy)acetamide] | 40%
14 | COc1ccc(S(=O)(=O)N2CCC(OCC(=O)NC3CCC(C(c4cccs4)N(C)C)CC3)C2)cc1OC (stereo not drawn) [Example 155, 2-(1-(3,4-dimethoxyphenylsulfonyl)pyrrolidin-3-yloxy)-N-(4-((dimethylamino)(thiophen-2-yl)methyl)cyclohexyl)acetamide] | 1%
15 | CN(C)C(c1ccccc1)C1CCC(CNC(=O)COCCN(Cc2ccccc2)S(=O)(=O)c2ccccc2)CC1 (stereo not drawn) [Example 15, 2-(2-(N-benzylphenylsulfonamido)ethoxy)-N-((4-((dimethylamino)(phenyl)methyl)cyclohexyl)methyl)acetamide] | -18%
16 | COc1ccc(S(=O)(=O)N2CCC(OCC(=O)NCC3CCC(C(c4cccs4)N(C)C)CC3)C2)cc1OC (stereo not drawn) [Example 23, 2-(1-(3,4-dimethoxyphenylsulfonyl)pyrrolidin-3-yloxy)-N-((4-((dimethylamino)(thiophen-2-yl)methyl)cyclohexyl)methyl)acetamide] | 7%
17 | COc1cc(C)c(S(=O)(=O)N(C)CCOCC(=O)NCCC2CCC(C(c3cccc(F)c3)N(C)C)CC2)c(C)c1C (stereo not drawn) [Example 183, N-(2-(4-((dimethylamino)(3-fluorophenyl)methyl)cyclohexyl)ethyl)-2-(2-(4-methoxy-N,2,3,6-tetramethylphenylsulfonamido)ethoxy)acetamide] | 28%
18 | COc1cc(C)c(S(=O)(=O)N2CCN(CCOCC(=O)NCCC3CCC(C(c4cccc(F)c4)N(C)C)CC3)CC2)c(C)c1C (stereo not drawn) [Example 200, N-(2-(4-((dimethylamino)(3-fluorophenyl)methyl)cyclohexyl)ethyl)-2-(2-(4-(4-methoxy-2,3,6-trimethylphenylsulfonyl)piperazin-1-yl)ethoxy)acetamide] | -3%
19 | COc1ccc(S(=O)(=O)N2CCCCC2COCC(=O)NCCC2CCC(C(c3cccs3)N(C)C)CC2)cc1 (stereo not drawn) [Example 30, N-(2-(4-((dimethylamino)(thiophen-2-yl)methyl)cyclohexyl)ethyl)-2-((1-(4-methoxyphenylsulfonyl)piperidin-2-yl)methoxy)acetamide] | 72%
20 | COc1cc(C)c(S(=O)(=O)N2CCC(OCC(=O)NCCC3CCC(C(c4cccs4)N(C)C)CC3)C2)c(C)c1 (stereo not drawn) [Example 199, N-(2-(4-((dimethylamino)(thiophen-2-yl)methyl)cyclohexyl)ethyl)-2-(1-(4-methoxy-2,6-dimethylphenylsulfonyl)pyrrolidin-3-yloxy)acetamide] | 100%
21 | CN(C)C(c1cccc(F)c1)C1CCC(CCNC(=O)COCCN(C)S(=O)(=O)c2c(Cl)cc(Cl)cc2Cl)CC1 (stereo not drawn) [Example 174, N-(2-(4-((dimethylamino)(3-fluorophenyl)methyl)cyclohexyl)ethyl)-2-(2-(2,4,6-trichloro-N-methylphenylsulfonamido)ethoxy)acetamide] | 44%
22 | CN(C)C(c1ccccc1)C1CCC(CNC(=O)COCC2CCCN2S(=O)(=O)c2ccc(Cl)c(Cl)c2)CC1 (stereo not drawn) [Example 18, 2-((1-(3,4-dichlorophenylsulfonyl)pyrrolidin-2-yl)methoxy)-N-((4-((dimethylamino)(phenyl)methyl)cyclohexyl)methyl)acetamide] | 11%
23 | CN(C)C(c1cccc(F)c1)C1CCC(NC(=O)COCCN(C)S(=O)(=O)c2c(Cl)cccc2Cl)CC1 (stereo not drawn) [Example 171, 2-(2-(2,6-dichloro-N-methylphenylsulfonamido)ethoxy)-N-(4-((dimethylamino)(3-fluorophenyl)methyl)cyclohexyl)acetamide] | 43%
24 | COc1cc(C)c(S(=O)(=O)N2CCC(OCC(=O)NC3CCC(C(c4ccccc4)N(C)C)CC3)C2)c(C)c1 (stereo not drawn) [Example 165, N-(4-((dimethylamino)(phenyl)methyl)cyclohexyl)-2-(1-(4-methoxy-2,6-dimethylphenylsulfonyl)pyrrolidin-3-yloxy)acetamide] | 38%
25 | CN(C)C(c1cccc(F)c1)C1CCC(CCNC(=O)COCC2CCCCN2S(=O)(=O)c2ccc(Cl)c(Cl)c2)CC1 (stereo not drawn) [Example 147, 2-((1-(3,4-dichlorophenylsulfonyl)piperidin-2-yl)methoxy)-N-(2-(4-((dimethylamino)(3-fluorophenyl)methyl)cyclohexyl)ethyl)acetamide] | 27%
26 | COc1cc(C)c(S(=O)(=O)N2CCCC(OCC(=O)NCC3CCC(C(c4cccc(F)c4)N(C)C)CC3)C2)c(C)c1C (stereo not drawn) [Example 145, N-((4-((dimethylamino)(3-fluorophenyl)methyl)cyclohexyl)methyl)-2-(1-(4-methoxy-2,3,6-trimethylphenylsulfonyl)piperidin-3-yloxy)acetamide] | 33%

Same assay, conditions: CHO-K1, read-out: B1R Ant. r [10 μM] % Inhibition

Row | Compound | inhibition at 10 µM
27 | CN(C)C(c1ccccc1)C1CCC(CNC(=O)COC2CCN(S(=O)(=O)c3ccccc3)C2)CC1 (stereo not drawn) [Example 195, N-((4-((dimethylamino)(phenyl)methyl)cyclohexyl)methyl)-2-(1-(phenylsulfonyl)pyrrolidin-3-yloxy)acetamide] | 24%
